Measurements taken from patent US5001118A, “Method for preventing senescence and increasing bone mass” (priority 1986, dated 1991).

Tests used:
[1] = test system: femurs and tibias of male Wister rats; test: Soft X-ray photographs: volumes of cortical bone and sponge bone; format: in vivo, rat (Wister); details: 400 μg/kg.day orally, 24 months, vs control
Method: Male Wister rats 4 weeks old were preliminarily kept for two weeks. For the subsequent 24 months, the present substance, 24R,25-(OH)2 -D3, was orally administered daily at a dosage of 400 μg/kg.day to the pre-bred rats. Then, the aged rats were sacrificed and their femurs and tibias were collected in the form with adhering flesh, and soft X-ray photographs thereof were taken with a camera (produced by Soflon Corp. and marketed under product code of "Model NST-1005"). By the obtained photographs the volumes of the cortical bone and the sponge bone were measured. Further, as to a part of the femurs the central portion in the direction of the major axis of the femurs was inspected with a microdensitometer thereby analyzing the picture of pattern of shade concentration to calculate the index by the conventional M.D. method. As regards the manner of administration, a modified feed was prepared by uniformly dispersing a prescribed amount of the present substance, 24R,25-(OH)2 -D3, in glycine and admixing the resultant dispersing mixture with a marketed feed (produced by Nippon Clea Co., Ltd. under product code of "CE-2") in such a ratio as to give a final glycine concentration of 0.5% by weight, and the modified feed was consumed by the rats. To the rats of the control group, the same marketed feed containing 0.5% by weight of glycine was given.

ICR type mice [2] = test: Histopathological inspection of internal organs (haematoxylin eosine); format: in vivo, mouse (ICR type); details: male and female ICR mice, 10, 100, and 1,000 μg/kg.day orally
Method: (§1) Solutions obtained by dissolving the present substance, 24R,25-(OH)2 -D3 in a prescribed concentration in triglyceride of a fatty acid of 8 to 10 carbon atoms containing 1% of ethanol were administered respectively, orally, forcedly and daily to three male-groups and three female-groups of ICR type mice 5 weeks old at dosages of 10, 100, and 1,000 μg/kg.day. The results are compared below with respect to the following items with those obtained of the male- and female-groups using only the solvent without the present substance.
The following internal organs were fixed with 10% formalin, tinted with haematoxylin eosine dye, and subjected to histopathological inspection.
Brain, heart, lung, liver, kidney, adrenal gland, spleen, pancreas, thyroid gland, pituitary gland, thymus, mesentery lymphoglandia, testis, ovary, uterus, stomach, small intestines (jejunum, ileum, and duodenum), large intestines (colon and caecum), orb, submaxillary gland, urinary bladder, dorsal skin, muscle, sternum, sternal medulla, femur, and femoral medulla.

ICR type mice [3] = test: Weight of internal organs, daily oral administration; format: in vivo, mouse (ICR type); parameters: key: .dwnarw.: Decrease below control; →: No difference from control; .uparw.: Increase above control
Method: as §1

ICR type mice [4] = test: Inspection of urine, daily oral administration; format: in vivo, mouse (ICR type); parameters: key: .dwnarw.: Decrease below control; →: No difference from control; .uparw.: Increase above control
Method: as §1

## C=C1CC[C@H](O)C/C1=C/C=C1\CCC[C@]2(C)[C@@H]([C@H](C)CC[C@@H](O)C(C)(C)O)CC[C@@H]12 [24R,25-(OH)2 -D3]
[1]
  cortical bone width: increase
  lateral diameter, D: increase
  trabecula of the sponge bone at epiphysis: increase
ICR type mice [2]
  histopathological inspection of internal organs: no discernible abnormality
ICR type mice [3]; female, 10 μg/kg
  Weight of adrenal gland: →
  Weight of brain: →
  Weight of heart: →
  Weight of kidney: →
  Weight of liver: →
  Weight of lung: →
  Weight of ovary: →
  Weight of pituitary gland: →
  Weight of spleen: →
  Weight of thymus gland: →
  Weight of uterus: →
ICR type mice [3]; female, 100 μg/kg
  Weight of adrenal gland: →
  Weight of brain: →
  Weight of heart: →
  Weight of kidney: →
  Weight of liver: →
  Weight of lung: →
  Weight of ovary: →
  Weight of pituitary gland: →
  Weight of spleen: →
  Weight of thymus gland: →
  Weight of uterus: →
ICR type mice [3]; female, 1000 μg/kg
  Weight of adrenal gland: →
  Weight of brain: →
  Weight of heart: →
  Weight of kidney: →
  Weight of liver: →
  Weight of lung: →
  Weight of ovary: →
  Weight of pituitary gland: →
  Weight of spleen: →
  Weight of thymus gland: →
  Weight of uterus: →
ICR type mice [3]; male, 10 μg/kg
  Weight of adrenal gland: →
  Weight of brain: →
  Weight of heart: →
  Weight of kidney: →
  Weight of liver: →
  Weight of lung: →
  Weight of pituitary gland: →
  Weight of spleen: →
  Weight of testis: →
  Weight of thymus gland: →
ICR type mice [3]; male, 100 μg/kg
  Weight of adrenal gland: →
  Weight of brain: →
  Weight of heart: →
  Weight of kidney: →
  Weight of liver: →
  Weight of lung: →
  Weight of pituitary gland: →
  Weight of spleen: →
  Weight of testis: →
  Weight of thymus gland: →
ICR type mice [3]; male, 1000 μg/kg
  Weight of adrenal gland: →
  Weight of brain: →
  Weight of heart: →
  Weight of kidney: →
  Weight of liver: →
  Weight of lung: →
  Weight of pituitary gland: →
  Weight of spleen: →
  Weight of testis: →
  Weight of thymus gland: →
ICR type mice [4]; female, 10 μg/kg
  Urine ketone body: →
  Urine occult blood: →
  Urine pH: →
  Urine protein: →
  Urine sugar: →
  Urobilinogen: →
ICR type mice [4]; female, 100 μg/kg
  Urine ketone body: →
  Urine occult blood: →
  Urine pH: →
  Urine protein: →
  Urine sugar: →
  Urobilinogen: →
ICR type mice [4]; female, 1000 μg/kg
  Urine ketone body: →
  Urine occult blood: →
  Urine pH: →
  Urine protein: →
  Urine sugar: →
  Urobilinogen: →
ICR type mice [4]; male, 10 μg/kg
  Urine ketone body: →
  Urine occult blood: →
  Urine pH: →
  Urine protein: →
  Urine sugar: →
  Urobilinogen: →
ICR type mice [4]; male, 100 μg/kg
  Urine ketone body: →
  Urine occult blood: →
  Urine pH: →
  Urine protein: →
  Urine sugar: →
  Urobilinogen: →
ICR type mice [4]; male, 1000 μg/kg
  Urine ketone body: →
  Urine occult blood: →
  Urine pH: →
  Urine protein: →
  Urine sugar: →
  Urobilinogen: →
